Literature values, collected in patent US20220378705A1, “METHOD FOR PREPARING PHARMACEUTICAL COMPOSITIONS CONTAINING AMPHIPHILIC ACTIVE INGREDIENTS” (PHARMADEV SA, priority 2019, published 2022).

Columns and labels:
[1] = octanol-water partition coefficient

Log Po/w [1] | pKa | Structure (SMILES)
4.43 | 4.44 | O=C(O)c1cccnc1Nc1cccc(C(F)(F)F)c1 [NIFLUMIC ACID]
2.3 | 3.84 | O=C(c1ccccc1)c1ccc2n1CCC2C(=O)O (racemic) [KETOROLAC, 2-amino-2-(hydroxymethyl)propane-1,3-2-amino-2-(hydroxymethyl)-1,3-propanediol(±)-5-benzoyl-2,3-dihydro-1H-pyrrolizine-1-carboxylic acid diol(±)-5-benzoyl-2,3-dihydro-1H-pyrrolizine-1-carboxylic acid]
4.20 | – | Cc1cccc(Nc2ccccc2C(=O)O)c1C [MEFENAMIC ACID, 2-(2,3-dimethylanilino)benzoic acid]
4.16 | 4.17 | CC(C(=O)O)c1ccc(-c2ccccc2)c(F)c1 (stereo not shown) [FLURBIPROFEN, 2-(3-fluoro-4-phenylphenyl)propanoic acid]
